{"source": "patent US20110033393A1", "about": "“Hydrazone Compounds and Their Use” (priority 2009, published 2011)", "note": "pIC50: −log10 of the molar value.", "data": [{"biological_target": "T1, human TRPM5 ion channel (Homo sapiens, UniProt Q9NZQ8)", "T1 sequence (Q9NZQ8 1-1165)": "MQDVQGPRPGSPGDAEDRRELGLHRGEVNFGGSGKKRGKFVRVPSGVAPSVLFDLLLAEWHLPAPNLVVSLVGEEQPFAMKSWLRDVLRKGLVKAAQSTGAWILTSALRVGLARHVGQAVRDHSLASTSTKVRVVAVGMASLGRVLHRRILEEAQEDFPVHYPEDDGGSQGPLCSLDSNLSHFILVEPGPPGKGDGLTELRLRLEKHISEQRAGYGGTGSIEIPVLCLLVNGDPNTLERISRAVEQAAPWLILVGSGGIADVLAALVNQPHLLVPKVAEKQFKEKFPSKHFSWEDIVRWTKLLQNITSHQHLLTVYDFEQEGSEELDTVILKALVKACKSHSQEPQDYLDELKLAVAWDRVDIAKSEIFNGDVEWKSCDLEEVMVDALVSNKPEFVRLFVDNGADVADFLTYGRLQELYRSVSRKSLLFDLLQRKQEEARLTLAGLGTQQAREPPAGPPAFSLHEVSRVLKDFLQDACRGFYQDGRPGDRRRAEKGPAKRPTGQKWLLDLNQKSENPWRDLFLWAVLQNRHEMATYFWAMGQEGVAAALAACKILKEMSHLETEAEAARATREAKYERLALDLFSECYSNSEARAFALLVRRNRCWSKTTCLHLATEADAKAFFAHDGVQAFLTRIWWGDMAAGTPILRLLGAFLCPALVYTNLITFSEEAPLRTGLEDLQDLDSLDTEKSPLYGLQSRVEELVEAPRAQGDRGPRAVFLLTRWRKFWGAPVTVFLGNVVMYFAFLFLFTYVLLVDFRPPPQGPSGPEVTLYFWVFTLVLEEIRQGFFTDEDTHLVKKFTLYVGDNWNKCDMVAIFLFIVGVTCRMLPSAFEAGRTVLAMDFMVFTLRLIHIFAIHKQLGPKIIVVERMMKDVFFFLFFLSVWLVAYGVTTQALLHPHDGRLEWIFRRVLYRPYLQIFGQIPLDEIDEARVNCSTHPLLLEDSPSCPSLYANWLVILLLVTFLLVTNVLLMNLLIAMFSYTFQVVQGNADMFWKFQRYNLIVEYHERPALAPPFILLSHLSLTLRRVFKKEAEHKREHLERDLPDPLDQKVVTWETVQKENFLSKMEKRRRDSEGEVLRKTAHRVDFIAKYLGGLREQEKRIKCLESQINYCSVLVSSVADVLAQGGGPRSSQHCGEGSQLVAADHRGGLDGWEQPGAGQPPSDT", "experiment": "FLIPR-based assay for membrane potential and calcium mobilization (TRPM5 inhibiting activity)", "assay_type": "cell-based", "conditions": "live cells, 30° C., read-out: hTrpM5 IC50", "procedure": "The activity of compounds of the present invention on human TRPM5 ion channel was measured using the FLIPR-based (fluorescent imaging plate reader) assay for membrane potential and calcium mobilization described in U.S. Patent Application Publication No. 2008/0249189 A1 in live cells, wherein the assay is performed at 30° C. Determinations of affinity and efficacy were derived from measurements of TRPM5 activity over a range of compound concentrations. The concentration range was achieved by 10 serial dilutions (either 2-fold or 3-fold decrements) from a maximum concentration of no greater that 100 μM. Curver fitting was performed on the resulting data to yield concentration-effect functions, from which the half-maximal inhibitory concentration (IC50) was derived for all the tested compounds. The IC50 values were considered to be accurate reflections of affinity between the compounds and TRPM5.\nRepresentative compounds of the present invention have been tested in the FLIPR assay for TRPM5 inhibiting activity, which is described in detail above.", "values": [{"smiles": "COc1ccc(/C=N/NC(=O)CSc2cccc(Cl)c2)cc1OC", "note": "[Example 66, 2-(3-chlorophenylthio)-N′-(3,4-dimethoxybenzylidene)acetohydrazide]", "pIC50": 7.40}, {"smiles": "COc1ccc(/C=N/NC(=O)CSc2cccc(CO)c2)cc1OC", "note": "[Example 67, N′-(3,4-dimethoxybenzylidene)-2-(3-(hydroxymethyl)phenylthio)-acetohydrazide]", "pIC50": "< 4.52"}, {"smiles": "Cc1cn(CCC(=O)N/N=C/c2ccc3cccnc3c2)c2ccccc12", "note": "[Example 68, 3-(3-methyl-1H-indol-1-yl)-N′-(quinolin-7-ylmethylene)-propanehydrazide]", "pIC50": "< 4.52"}, {"smiles": "Cc1ccc2cc(/C=N/NC(=O)CCn3cc(C)c4ccccc43)ccc2n1", "note": "[Example 69, 3-(3-methyl-1H-indol-1-yl)-N′-((2-methylquinolin-6-yl)methylene)-propanehydrazide]", "pIC50": "< 4.52"}]}]}
